Data: PubChem BioAssay AID330 (DTP/NCI, 2004)
Several values for one entry are separate records, joined by “and”; a condition that tells them apart may be missing. Equal entries are not always repeated. Toxic doses and inconclusive results are not listed. How the source made its calls: active means survival T/C of 150% or more; inactive means T/C below 125% in these data.

Test system: P388 leukemia ip, CD2F1 mice, survival T/C
Assay: NCI In Vivo Anticancer Drug Screen. Data for tumor model P388 Leukemia (intraperitoneal) in CD2F1 (CDF1) mice
Conditions: endpoint: median survival time, higher = longer survival
Summary of the method: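 Mice carrying the transplanted tumor received test compound or vehicle. Survival was recorded in each group, and the value is the treated-group measurement divided by that of the vehicle-treated control group.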

[1] = dose: 12.5 mg/kg/injection, schedule: Q01DX009 (ip), vehicle: saline with Tween-80
[2] = dose: 25.0 mg/kg/injection, schedule: Q01DX009 (ip), vehicle: saline with Tween-80
[3] = dose: 25.0 mg/kg/injection, schedule: Q04DX003 (ip), vehicle: saline with Tween-80
[4] = dose: 50.0 mg/kg/injection, schedule: Q04DX003 (ip), vehicle: saline with Tween-80
[5] = dose: 100.0 mg/kg/injection, schedule: Q04DX003 (ip), vehicle: saline with Tween-80
[6] = dose: 400.0 mg/kg/injection, schedule: Q04DX003 (ip), vehicle: saline with Tween-80
[7] = dose: 100.0 mg/kg/injection, schedule: Q01DX009 (ip), vehicle: saline with Tween-80
[8] = dose: 50.0 mg/kg/injection, schedule: Q01DX005 (ip), vehicle: saline with Tween-80
[9] = dose: 100.0 mg/kg/injection, schedule: Q01DX005 (ip), vehicle: saline with Tween-80
[10] = dose: 200.0 mg/kg/injection, schedule: Q01DX005 (ip), vehicle: saline with Tween-80
[11] = dose: 60.0 mg/kg/injection, schedule: Q01DX005 (ip), vehicle: Klucel (hydroxypropylcellulose) (HPC)
[12] = dose: 120.0 mg/kg/injection, schedule: Q01DX005 (ip), vehicle: Klucel (hydroxypropylcellulose) (HPC)
[13] = dose: 240.0 mg/kg/injection, schedule: Q01DX005 (ip), vehicle: Klucel (hydroxypropylcellulose) (HPC)
[14] = dose: 60.0 mg/kg/injection, schedule: Q01DX005 (ip), vehicle: saline with Tween-80
[15] = dose: 120.0 mg/kg/injection, schedule: Q01DX005 (ip), vehicle: saline with Tween-80
[16] = dose: 240.0 mg/kg/injection, schedule: Q01DX005 (ip), vehicle: saline with Tween-80
[17] = dose: 50.0 mg/kg/injection, schedule: Q01DX005 (ip), vehicle: Klucel (hydroxypropylcellulose) (HPC)
[18] = dose: 100.0 mg/kg/injection, schedule: Q01DX005 (ip), vehicle: Klucel (hydroxypropylcellulose) (HPC)
[19] = dose: 200.0 mg/kg/injection, schedule: Q01DX005 (ip), vehicle: Klucel (hydroxypropylcellulose) (HPC)
[20] = dose: 100.0 mg/kg/injection, schedule: Q01DX009 (ip), vehicle: Klucel (hydroxypropylcellulose) (HPC)
[21] = dose: 200.0 mg/kg/injection, schedule: Q01DX009 (ip), vehicle: Klucel (hydroxypropylcellulose) (HPC)
[22] = dose: 100.0 mg/kg/injection, schedule: Q04DX003 (ip), vehicle: Klucel (hydroxypropylcellulose) (HPC)
[23] = dose: 200.0 mg/kg/injection, schedule: Q04DX003 (ip), vehicle: Klucel (hydroxypropylcellulose) (HPC)
[24] = dose: 50.0 mg/kg/injection, schedule: Q01DX009 (ip), vehicle: Klucel (hydroxypropylcellulose) (HPC)

Measured: T/C

CN(N=O)C(N)=O
active: [1] 159 % of control | [3] 177 % of control | dose: 37.5 mg/kg/injection, schedule: Q04DX003 (ip), vehicle: saline with Tween-80 172 % of control
inactive: dose: 5.0 mg/kg/injection, schedule: Q04DX003 (ip), vehicle: saline with Tween-80 104 % of control | dose: 10.0 mg/kg/injection, schedule: Q04DX003 (ip), vehicle: saline with Tween-80 119 % of control | [2] 95 % of control | [4] 113 % of control

Cc1cccc(C)c1NC=O
inactive: dose: 50.0 mg/kg/injection, schedule: Q04DX003 (ip), vehicle: saline 112 % of control | dose: 100.0 mg/kg/injection, schedule: Q04DX003 (ip), vehicle: saline 105 % of control | dose: 200.0 mg/kg/injection, schedule: Q04DX003 (ip), vehicle: saline 106 % of control | dose: 400.0 mg/kg/injection, schedule: Q04DX003 (ip), vehicle: saline 106 % of control

O=C(O)C(Cc1ccc(OC(=O)C(F)(F)F)cc1)NC(=O)C(F)(F)F (centres undefined)
inactive: [3] 95 % of control | [4] 100 % of control | [5] 100 % of control and 101 % of control | [6] 93 % of control

CCCCCCCCCCCCCCCCOc1ccccc1CNc1cc(Cl)ccc1Cl
inactive: [7] 100 % of control | [5] 100 % of control | dose: 200.0 mg/kg/injection, schedule: Q01DX009 (ip), vehicle: saline with Tween-80 91 % of control | dose: 200.0 mg/kg/injection, schedule: Q04DX003 (ip), vehicle: saline with Tween-80 100 % of control | dose: 400.0 mg/kg/injection, schedule: Q01DX009 (ip), vehicle: saline with Tween-80 100 % of control | [6] 86 % of control

OC1C2CCC(C2)C1CN1CCOCC1 (centres undefined)
inactive: dose: 25.0 mg/kg/injection, schedule: Q01DX005 (ip), vehicle: saline with Tween-80 99 % of control | [8] 99 % of control | [9] 99 % of control | [10] 96 % of control

C1CCc2[nH]nc(-c3n[nH]c4c3CCCCC4)c2CC1
inactive: [11] 100 % of control | [12] 94 % of control | [13] 96 % of control

COC1=CC=C2Nc3nc(N)[nH]c(=O)c3SC2N1 (centres undefined)
inactive: [14] 99 % of control | [15] 90 % of control | [16] 97 % of control

C=C1CC2(CCCc3ccccc32)OC1=O (centres undefined)
inactive: dose: 100.0 mg/kg/injection, schedule: Q01DX001 (ip), vehicle: saline 101 % of control | dose: 200.0 mg/kg/injection, schedule: Q01DX001 (ip), vehicle: saline 102 % of control | dose: 400.0 mg/kg/injection, schedule: Q01DX001 (ip), vehicle: saline 101 % of control

CC1=NCCc2cc3c(cc21)OCO3
inactive: dose: 25.0 mg/kg/injection, schedule: Q01DX001 (ip), vehicle: saline + alcohol 99 % of control | dose: 50.0 mg/kg/injection, schedule: Q01DX001 (ip), vehicle: saline + alcohol 97 % of control

CC1OC(=O)/C(=C\N(C)C)C1=O (centres undefined)
inactive: [17] 105 % of control | [18] 111 % of control | [19] 109 % of control

O=[N+]([O-])c1ccc(SC2=NCCCN2C2CCCCC2)c(Cl)c1
inactive: [17] 97 % of control | [18] 100 % of control | [19] 103 % of control

Brc1ccc[n+](CCc2ccccc2)c1
inactive: [1] 111 % of control | [2] 98 % of control

Cc1coc2c1CC1(C)C(CCC(OC(=O)CC(C)C)C1C)C2=O (centres undefined) (tested in a mixture with another compound)
inactive: [20] 105 % of control | [21] 93 % of control

CCOC(=O)c1cc2c(nc1C)-c1cc(Cl)ccc1OC2OCc1ccccc1 (centres undefined)
inactive: [14] 88 % of control | [15] 94 % of control | [16] 97 % of control

O=C1CC(c2ccccc2)C(c2ccccc2)C(=O)O1 (centres undefined)
inactive: [22] 87 % of control | [23] 93 % of control | dose: 400.0 mg/kg/injection, schedule: Q04DX003 (ip), vehicle: Klucel (hydroxypropylcellulose) (HPC) 91 % of control

CCC1OCN2CCCCC12 (centres undefined)
inactive: dose: 12.5 mg/kg/injection, schedule: Q01DX005 (ip), vehicle: saline 100 % of control and 105 % of control | dose: 25.0 mg/kg/injection, schedule: Q01DX005 (ip), vehicle: saline 107 % of control and 108 % of control | dose: 50.0 mg/kg/injection, schedule: Q01DX005 (ip), vehicle: saline 105 % of control and 107 % of control and 108 % of control | dose: 100.0 mg/kg/injection, schedule: Q01DX005 (ip), vehicle: saline 108 % of control and 110 % of control

Cc1nn(C(=O)c2cccnc2)c(-c2ccccc2)c1N=Nc1ccc(C(=O)O)cc1
inactive: [8] 93 % of control | [9] 93 % of control

COC1(OC)C(c2cccs2)C(C#N)(C#N)C1(OC)OC (centres undefined)
inactive: [11] 100 % of control | [12] 105 % of control | [13] 100 % of control

O=C1OCC/C1=C\NCCCN/C=C1\CCOC1=O
inactive: [14] 107 % of control | [15] 100 % of control | [16] 105 % of control

O=C1CC2(CCCC2)C(=O)N1c1ccc(N2C(=O)CC3(CCCC3)C2=O)cc1
inactive: [24] 96 % of control | [20] 99 % of control | [21] 96 % of control

CC1(C)OC2C(COC(=O)Oc3ccccc3)OC(n3cnc4c(=S)nc[nH]c43)C2O1 (centres undefined)
inactive: [2] 95 % of control | [3] 105 % of control | dose: 50.0 mg/kg/injection, schedule: Q01DX009 (ip), vehicle: saline with Tween-80 95 % of control | [4] 110 % of control | [7] 95 % of control | [5] 100 % of control

Cc1cc(C)cc(C(=O)NCc2ccc[n+]([O-])c2)c1
inactive: dose: 60.0 mg/kg/injection, schedule: Q01DX005 (ip), vehicle: saline 97 % of control | dose: 120.0 mg/kg/injection, schedule: Q01DX005 (ip), vehicle: saline 94 % of control

O=C(NCCN1CCN2Cc3[nH]c4ccccc4c3CC2C1)c1ccc([N+](=O)[O-])cc1 (centres undefined)
inactive: dose: 100.0 mg/kg/injection, schedule: Q04DX002 (ip), vehicle: saline with Tween-80 96 % of control | dose: 200.0 mg/kg/injection, schedule: Q04DX002 (ip), vehicle: saline with Tween-80 87 % of control | dose: 400.0 mg/kg/injection, schedule: Q04DX002 (ip), vehicle: saline with Tween-80 86 % of control

NC(CCCCNC(=O)OCCCCCOC(=O)NCCCCC(N)C(=O)O)C(=O)O (centres undefined)
inactive: dose: 50.0 mg/kg/injection, schedule: Q01DX009 (ip), vehicle: suspension in saline 95 % of control | dose: 100.0 mg/kg/injection, schedule: Q01DX009 (ip), vehicle: suspension in saline 106 % of control | dose: 200.0 mg/kg/injection, schedule: Q01DX009 (ip), vehicle: suspension in saline 104 % of control

CC(=O)N1CCc2ccccc2C1C1NCCc2ccccc21 (centres undefined)
inactive: [22] 95 % of control | [23] 94 % of control

CC1=NN(C(=O)NS(=O)(=O)c2ccc(CCNC(=O)c3nccnc3N)cc2)CC1
inactive: [8] 96 % of control | [9] 105 % of control | [10] 105 % of control

CC(=O)N1CCc2cc(C(C)C)ccc21
inactive: dose: 25.0 mg/kg/injection, schedule: Q01DX009 (ip), vehicle: other 97 % of control | dose: 50.0 mg/kg/injection, schedule: Q01DX009 (ip), vehicle: other 97 % of control | dose: 100.0 mg/kg/injection, schedule: Q01DX009 (ip), vehicle: other 91 % of control | dose: 200.0 mg/kg/injection, schedule: Q01DX009 (ip), vehicle: other 103 % of control | dose: 400.0 mg/kg/injection, schedule: Q01DX009 (ip), vehicle: other 88 % of control

CNc1nncc(=O)[nH]1
inactive: [24] 107 % of control | [20] 107 % of control | [21] 99 % of control

Cc1ccc2occ(/C=N/NC(N)=S)c(=O)c2c1
inactive: [8] 90 % of control | [9] 97 % of control

Clc1ccc2nc3c(c(N4CCCCC4)c2c1)CCCC3
inactive: [8] 105 % of control | [9] 105 % of control | [10] 100 % of control
